Laboratory results as given in patent publication US20240376052A1, “N-SUBSTITUTED INDOLE DERIVATIVES AS SEROTONERGIC AGENTS USEFUL FOR THE TREATMENT OF DISORDERS RELATED THERETO” (Mindset Pharma Inc., priority 2021, published 2024).
Like-named read-outs stand apart in the source and are kept apart here.

Tests used:
human 5-HT2A receptor = human 5-HT2A receptor (Homo sapiens (Human), UniProt P28223); test: Human 5-HT2A radioligand binding assay ([3H]-ketanserin)
[1] = Liver microsomes stability, dog; conditions: for Remaining Percentage (%): Dog
[2] = Liver microsomes stability, mouse; conditions: for Remaining Percentage (%): Mouse
Method: (§1) The objective of this study was to estimate in vitro metabolic stability of representative compounds of the application in pooled human and male mouse liver microsomes. The concentrations of parent compounds in reaction systems were evaluated by LC-MS/MS for estimating the stability in pooled human and male mouse liver microsomes. The in vitro intrinsic clearances of test compounds were determined as well.
(§2) A master solution in the “Incubation Plate” containing phosphate buffer, ultra-pure H2O, MgCl2 solution and liver microsomes was made according to Table 3. The mixture was pre-warmed at 37° C. water bath for 5 minutes.
(§3) 40 μL of 10 mM NADPH solution was added to each well. The final concentration of NADPH was 1 mM. The negative control samples were prepared by replacing NADPH with 40 μL of ultra-pure H2O. Samples were prepared in duplicate. Negative controls were prepared in singlet.
(§4) The reaction was started with the addition of 4 μL of 200 μM test compounds or control compounds to each master solution to get the final concentration of 2 μM. This study was performed in duplicate.
(§5) Aliquots of 50 μL were taken from the reaction solution at 0, 15, 30, 45 and 60 minutes. The reaction solutions were stopped by the addition of 4 volumes of cold methanol with IS (100 nM alprazolam, 200 nM imipramine, 200 nM labetalol and 2 μM ketoprofen). Samples were centrifuged at 3,220 g for 40 minutes. Aliquot of 90 μL of the supernatant was mixed with 90 μL of ultra-pure H2O and then was used for LC-MS/MS analysis.
(§6) LC/MS analysis was performed for all samples from this study using a Shimadzu liquid chromatograph separation system equipped with degasser DGU-20A5R; solvent delivery unit LC-30AD; system controller SIL-30AC; column oven CTO-30A; CTC Analytics HTC PAL System. Mass spectrometric analysis was performed using an Triple Quad™ 5500 instrument.
(§7) All calculations were carried out using Microsoft Excel. Peak area ratios of test compound to internal standard (listed in the below table) were determined from extracted ion chromatograms.
(§8) All calculations were carried out using Microsoft Excel. Peak areas were determined from extracted ion chromatograms. The slope value, k, was determined by linear regression of the natural logarithm of the remaining percentage of the parent drug vs. incubation time curve.
(§9) The in vitro half-life (in vitro t1/2) was determined from the slope value:
(§10) Conversion of the in vitro t1/2(min) into the in vitro intrinsic clearance (in vitro CLint, in μL/min/mg proteins) was done using the following equation (mean of duplicate determinations): […]

[3] = Liver microsomes stability, rat; conditions: for Remaining Percentage (%): Rat
Method: as §1, §2, §3, §4, §5, §6, §7, §8, §9, §10

[4] = Liver microsomes stability, human; conditions: for Remaining Percentage (%): Human
Method: as §1, §2, §3, §4, §5, §6, §7, §8, §9, §10

[5] = [3H]-ketanserin competition, read-out: h5-HT2A IC50

CCCCC/C=C\C/C=C\CCCCCCCC(=O)n1cc(C2CCN(C)C2)c2ccccc21 (racemic) [Compound I-12, (9Z,12Z)-1-(3-(1-Methylpyrrolidin-3-yl)-1H-indol-1-yl)octadeca-9,12-dien-1-one]
IC50 (human 5-HT2A receptor; [5]): 2000 to 5000 nM

CCCCC/C=C\C/C=C\CCCCCCCC(=O)n1cc(C2CCN(C)C2)c2cc(OC)ccc21 (racemic) [Compound I-13, (9Z,12Z)-1-(5-Methoxy-3-(1-methylpyrrolidin-3-yl)-1H-indol-1-yl)octadeca-9,12-dien-1-one]
IC50 (human 5-HT2A receptor; [5]): 2000 to 5000 nM

[2H]C([2H])([2H])Oc1ccc2c(c1)c(C([2H])([2H])C([2H])([2H])N(C([2H])([2H])[2H])C([2H])([2H])[2H])cn2C(=O)CCCCCCC/C=C\C/C=C\CCCCC [Compound I-4, (9Z,12Z)-1-(3-(2-(Bis(methyl-d3)amino)ethyl-1,1,2,2-d4)-5-(methoxy-d3)-1H-indol-1-yl)octadeca-9,12-dien-1-one]
IC50 (human 5-HT2A receptor): < 2000 nM

CCCCC/C=C\C/C=C\CCCCCCCC(=O)n1cc(C[C@H]2CCCN2C)c2ccccc21 [Compound I-5, (9Z,12Z)-1-(3-(((R)-1-Methylpyrrolidin-2-yl)methyl)-1H-indol-1-yl)octadeca-9,12-dien-1-one]
Predicted hepatic CL ([1]; Dog liver microsomes): 21.51 mL/min/kg | Remaining Percentage (%) ([1]; With NADPH, 0 min): 100.00% | Remaining Percentage (%) ([1]; With NADPH, 30 min): 65.44% | Remaining Percentage (%) ([1]; With NADPH, 60 min): 42.66% | Remaining Percentage (%) ([1]; Without NADPH, 0 min): 100.00% | Remaining Percentage (%) ([1]; Without NADPH, 30 min): 87.66% | Remaining Percentage (%) ([1]; Without NADPH, 60 min): 90.58% | CLint scaled at 2 μM ([1]; dog, microsomes): 70.8 mL/min/kg | half-life at 2 μM ([1]; dog, microsomes): 0.814 h | microsomal CLint at 2 μM ([1]; dog, microsomes): 28.4 µL/min/mg | Predicted hepatic CL ([2]; Mouse liver microsomes): 41.60 mL/min/kg | Remaining Percentage (%) ([2]; With NADPH, 0 min): 100.00% | Remaining Percentage (%) ([2]; With NADPH, 30 min): 74.79% | Remaining Percentage (%) ([2]; With NADPH, 60 min): 58.84% | Remaining Percentage (%) ([2]; Without NADPH, 0 min): 100.00% | Remaining Percentage (%) ([2]; Without NADPH, 30 min): 80.19% | Remaining Percentage (%) ([2]; Without NADPH, 60 min): 90.42% | CLint scaled at 2 μM ([2]; male, mouse, microsomes): 77.3 mL/min/kg | half-life at 2 μM ([2]; male, mouse, microsomes): 1.31 h | microsomal CLint at 2 μM ([2]; male, mouse, microsomes): 17.7 µL/min/mg | Predicted hepatic CL ([3]; Rat liver microsomes): 24.83 mL/min/kg | Remaining Percentage (%) ([3]; With NADPH, 0 min): 100.00% | Remaining Percentage (%) ([3]; With NADPH, 30 min): 69.74% | Remaining Percentage (%) ([3]; With NADPH, 60 min): 46.98% | Remaining Percentage (%) ([3]; Without NADPH, 0 min): 100.00% | Remaining Percentage (%) ([3]; Without NADPH, 30 min): 97.35% | Remaining Percentage (%) ([3]; Without NADPH, 60 min): 95.87% | CLint scaled at 2 μM ([3]; rat, microsomes): 45.1 mL/min/kg | half-life at 2 μM ([3]; rat, microsomes): 0.917 h | microsomal CLint at 2 μM ([3]; rat, microsomes): 25.2 µL/min/mg | Predicted hepatic CL ([4]; Human liver microsomes): 6.42 mL/min/kg | Remaining Percentage (%) ([4]; With NADPH, 0 min): 100.00% | Remaining Percentage (%) ([4]; With NADPH, 30 min): 86.52% | Remaining Percentage (%) ([4]; With NADPH, 60 min): 80.05% | Remaining Percentage (%) ([4]; Without NADPH, 0 min): 100.00% | Remaining Percentage (%) ([4]; Without NADPH, 30 min): 85.69% | Remaining Percentage (%) ([4]; Without NADPH, 60 min): 80.25% | CLint scaled at 2 μM ([4]; human, microsomes): 9.3 mL/min/kg | half-life at 2 μM ([4]; human, microsomes): 3.11 h | microsomal CLint at 2 μM ([4]; human, microsomes): 7.42 µL/min/mg | IC50 (human 5-HT2A receptor): < 2000 nM
